Measured values from the NIST ThermoML archive (doi:10.1021/je049609w).
± gives the expanded uncertainty stated by the source.

Tests used:
[1] = xn = mol fraction of the nth substance listed; conditions: 101 kPa, Liquid
[2] = refractive index (Na D-line) (dimensionless); xn = mol fraction of the nth substance listed; conditions: 101 kPa, Liquid

C1COCCO1 [1,4-dioxane] + CCOC(C)=O
Conditions | mass density, 298.15 K [kg/m3] | mass density, 303.15 K [kg/m3] | mass density, 308.15 K [kg/m3] | refractive index, 298.15 K | refractive index, 303.15 K | refractive index, 308.15 K | speed of sound, 298.15 K [m/s] | viscosity, 298.15 K [mPa·s] | viscosity, 303.15 K [mPa·s] | viscosity, 308.15 K [mPa·s]
[1], x1 = 0.1004 | 906.2 ± 1.2 | 900 ± 1.2 | 893.9 ± 1.3 | – | – | – | 1174 ± 7 | 0.467 ± 0.017 | 0.442 ± 0.017 | 0.417 ± 0.016
[1], x1 = 0.2001 | 918.8 ± 1.2 | 912.7 ± 1.3 | 906.6 ± 1.3 | – | – | – | 1193 ± 7 | 0.505 ± 0.018 | 0.478 ± 0.018 | 0.45 ± 0.017
[1], x1 = 0.3021 | 931.9 ± 1.2 | 925.8 ± 1.3 | 919.8 ± 1.3 | – | – | – | 1212 ± 7 | 0.543 ± 0.019 | 0.513 ± 0.019 | 0.482 ± 0.018
[1], x1 = 0.4002 | 944.7 ± 1.3 | 938.7 ± 1.3 | 932.7 ± 1.4 | – | – | – | 1231 ± 7 | 0.595 ± 0.021 | 0.56 ± 0.02 | 0.525 ± 0.019
[1], x1 = 0.5071 | 958.7 ± 1.3 | 952.8 ± 1.3 | 946.9 ± 1.4 | – | – | – | 1250 ± 7 | 0.646 ± 0.022 | 0.607 ± 0.021 | 0.568 ± 0.02
[1], x1 = 0.6001 | 971.1 ± 1.3 | 965.2 ± 1.4 | 959.5 ± 1.4 | – | – | – | 1269 ± 7 | 0.707 ± 0.024 | 0.671 ± 0.023 | 0.616 ± 0.021
[1], x1 = 0.6972 | 984.4 ± 1.3 | 978.6 ± 1.4 | 972.8 ± 1.4 | – | – | – | 1288 ± 7 | 0.791 ± 0.026 | 0.735 ± 0.025 | 0.684 ± 0.023
[1], x1 = 0.799 | 998.7 ± 1.4 | 993 ± 1.4 | 987.2 ± 1.5 | – | – | – | 1307 ± 7 | 0.908 ± 0.03 | 0.843 ± 0.028 | 0.778 ± 0.026
[1], x1 = 0.8991 | 1013.3 ± 1.4 | 1007.7 ± 1.4 | 1001.9 ± 1.5 | – | – | – | 1327 ± 7 | 1.029 ± 0.033 | 0.951 ± 0.031 | 0.873 ± 0.029
[1], x1 = 1 | 1028.6 ± 1.4 | 1022.9 ± 1.5 | 1017.2 ± 1.5 | – | – | – | 1345 ± 7 | 1.195 ± 0.038 | 1.095 ± 0.035 | 1.008 ± 0.032
[2], x1 = 0.1004 | – | – | – | 1.3753 ± 0.0024 | 1.3716 ± 0.0024 | 1.368 ± 0.0024 | – | – | – | –
[2], x1 = 0.2001 | – | – | – | 1.3798 ± 0.0024 | 1.3764 ± 0.0024 | 1.373 ± 0.0024 | – | – | – | –
[2], x1 = 0.3021 | – | – | – | 1.3843 ± 0.0024 | 1.3813 ± 0.0024 | 1.3782 ± 0.0024 | – | – | – | –
[2], x1 = 0.4002 | – | – | – | 1.389 ± 0.0024 | 1.3862 ± 0.0024 | 1.3834 ± 0.0024 | – | – | – | –
[2], x1 = 0.5071 | – | – | – | 1.3942 ± 0.0024 | 1.3915 ± 0.0024 | 1.3889 ± 0.0024 | – | – | – | –
[2], x1 = 0.6001 | – | – | – | 1.3991 ± 0.0024 | 1.3964 ± 0.0024 | 1.3938 ± 0.0024 | – | – | – | –
[2], x1 = 0.6972 | – | – | – | 1.4041 ± 0.0024 | 1.4015 ± 0.0024 | 1.3989 ± 0.0024 | – | – | – | –
[2], x1 = 0.799 | – | – | – | 1.4094 ± 0.0024 | 1.4069 ± 0.0024 | 1.4044 ± 0.0024 | – | – | – | –
[2], x1 = 0.8991 | – | – | – | 1.4148 ± 0.0024 | 1.4122 ± 0.0024 | 1.4097 ± 0.0024 | – | – | – | –
[2], x1 = 1 | – | – | – | 1.4203 ± 0.0024 | 1.4164 ± 0.0024 | 1.4145 ± 0.0024 | – | – | – | –

C1COCCO1 [1,4-dioxane] + ClC=C(Cl)Cl
x1 = 1
Conditions | mass density, 298.15 K [kg/m3] | mass density, 303.15 K [kg/m3] | mass density, 308.15 K [kg/m3] | refractive index, 298.15 K | refractive index, 303.15 K | refractive index, 308.15 K | speed of sound, 298.15 K [m/s] | viscosity, 298.15 K [mPa·s] | viscosity, 303.15 K [mPa·s] | viscosity, 308.15 K [mPa·s]
[1] | 1028.6 ± 1.4 | 1022.9 ± 1.5 | 1017.2 ± 1.5 | – | – | – | 1345 ± 7 | 1.196 ± 0.038 | 1.102 ± 0.035 | 1.008 ± 0.032
[2] | – | – | – | 1.4203 ± 0.0024 | 1.4164 ± 0.0024 | 1.4145 ± 0.0024 | – | – | – | –

C1COCCO1 [1,4-dioxane] + Clc1ccccc1Cl
x1 = 1
Conditions | mass density, 298.15 K [kg/m3] | mass density, 303.15 K [kg/m3] | mass density, 308.15 K [kg/m3] | refractive index, 298.15 K | refractive index, 303.15 K | refractive index, 308.15 K | speed of sound, 298.15 K [m/s] | viscosity, 298.15 K [mPa·s] | viscosity, 303.15 K [mPa·s] | viscosity, 308.15 K [mPa·s]
[1] | 1028.6 ± 1.4 | 1022.9 ± 1.5 | 1017.2 ± 1.5 | – | – | – | 1345 ± 7 | 1.196 ± 0.038 | 1.102 ± 0.035 | 1.008 ± 0.032
[2] | – | – | – | 1.4203 ± 0.0024 | 1.4164 ± 0.0024 | 1.4145 ± 0.0024 | – | – | – | –

C1COCCO1 [1,4-dioxane] + OCCCl
x1 = 1
Conditions | mass density, 298.15 K [kg/m3] | mass density, 303.15 K [kg/m3] | mass density, 308.15 K [kg/m3] | refractive index, 298.15 K | refractive index, 303.15 K | refractive index, 308.15 K | speed of sound, 298.15 K [m/s] | viscosity, 298.15 K [mPa·s] | viscosity, 303.15 K [mPa·s] | viscosity, 308.15 K [mPa·s]
[1] | 1028.6 ± 1.4 | 1022.9 ± 1.5 | 1017.2 ± 1.5 | – | – | – | 1345 ± 7 | 1.196 ± 0.038 | 1.095 ± 0.035 | 1.008 ± 0.032
[2] | – | – | – | 1.4203 ± 0.0024 | 1.4164 ± 0.0024 | 1.4145 ± 0.0024 | – | – | – | –

OCCCl [1-chloro-2-hydroxyethane] + C1COCCO1
Conditions | mass density, 298.15 K [kg/m3] | mass density, 303.15 K [kg/m3] | mass density, 308.15 K [kg/m3] | refractive index, 298.15 K | refractive index, 303.15 K | refractive index, 308.15 K | speed of sound, 298.15 K [m/s] | viscosity, 298.15 K [mPa·s] | viscosity, 303.15 K [mPa·s] | viscosity, 308.15 K [mPa·s]
[1], x2 = 0 | 1200.9 ± 1.7 | 1192.5 ± 1.7 | 1187.1 ± 1.8 | – | – | – | 1358 ± 8 | 3.104 ± 0.091 | 2.669 ± 0.079 | 2.347 ± 0.07
[1], x2 = 0.1024 | 1177.7 ± 1.7 | 1171.1 ± 1.7 | 1165.1 ± 1.7 | – | – | – | 1357 ± 8 | 2.755 ± 0.081 | 2.457 ± 0.073 | 2.16 ± 0.065
[1], x2 = 0.2001 | 1157 ± 1.6 | 1151.1 ± 1.7 | 1145.2 ± 1.7 | – | – | – | 1356 ± 8 | 2.431 ± 0.072 | 2.17 ± 0.065 | 1.909 ± 0.058
[1], x2 = 0.3035 | 1136.7 ± 1.6 | 1131.1 ± 1.6 | 1125.5 ± 1.7 | – | – | – | 1354 ± 8 | 2.088 ± 0.063 | 1.877 ± 0.057 | 1.666 ± 0.051
[1], x2 = 0.4041 | 1118.2 ± 1.6 | 1112.7 ± 1.6 | 1107.2 ± 1.7 | – | – | – | 1353 ± 8 | 1.858 ± 0.056 | 1.682 ± 0.051 | 1.505 ± 0.046
[1], x2 = 0.5047 | 1100.8 ± 1.5 | 1095.4 ± 1.6 | 1090 ± 1.6 | – | – | – | 1352 ± 7 | 1.649 ± 0.05 | 1.496 ± 0.046 | 1.344 ± 0.042
[1], x2 = 0.6031 | 1084.8 ± 1.5 | 1079.4 ± 1.5 | 1073.9 ± 1.6 | – | – | – | 1350 ± 7 | 1.505 ± 0.046 | 1.376 ± 0.043 | 1.248 ± 0.039
[1], x2 = 0.7015 | 1069.5 ± 1.5 | 1064.1 ± 1.5 | 1058.7 ± 1.6 | – | – | – | 1349 ± 7 | 1.377 ± 0.043 | 1.265 ± 0.04 | 1.152 ± 0.037
[1], x2 = 0.8009 | 1054.9 ± 1.5 | 1049.5 ± 1.5 | 1044.1 ± 1.5 | – | – | – | 1347 ± 7 | 1.304 ± 0.041 | 1.199 ± 0.038 | 1.095 ± 0.035
[1], x2 = 0.9003 | 1041.6 ± 1.4 | 1030.9 ± 7 | 1030.2 ± 1.5 | – | – | – | 1346 ± 7 | 1.233 ± 0.039 | 1.136 ± 0.036 | 1.038 ± 0.033
[2], x2 = 0 | – | – | – | 1.4411 ± 0.0024 | 1.438 ± 0.0024 | 1.4326 ± 0.0024 | – | – | – | –
[2], x2 = 0.1024 | – | – | – | 1.4389 ± 0.0024 | 1.4356 ± 0.0024 | 1.4324 ± 0.0024 | – | – | – | –
[2], x2 = 0.2001 | – | – | – | 1.4363 ± 0.0024 | 1.4337 ± 0.0024 | 1.431 ± 0.0024 | – | – | – | –
[2], x2 = 0.3035 | – | – | – | 1.4337 ± 0.0024 | 1.4314 ± 0.0024 | 1.4292 ± 0.0024 | – | – | – | –
[2], x2 = 0.4041 | – | – | – | 1.4314 ± 0.0024 | 1.4291 ± 0.0024 | 1.4268 ± 0.0024 | – | – | – | –
[2], x2 = 0.5047 | – | – | – | 1.429 ± 0.0024 | 1.4269 ± 0.0024 | 1.4247 ± 0.0024 | – | – | – | –
[2], x2 = 0.6031 | – | – | – | 1.4273 ± 0.0024 | 1.4249 ± 0.0024 | 1.4225 ± 0.0024 | – | – | – | –
[2], x2 = 0.7015 | – | – | – | 1.4256 ± 0.0024 | 1.4231 ± 0.0024 | 1.4205 ± 0.0024 | – | – | – | –
[2], x2 = 0.8009 | – | – | – | 1.4235 ± 0.0024 | 1.4211 ± 0.0024 | 1.4187 ± 0.0024 | – | – | – | –
[2], x2 = 0.9003 | – | – | – | 1.4214 ± 0.0024 | 1.4191 ± 0.0024 | 1.4168 ± 0.0024 | – | – | – | –
